Series [1] concerns dyskinesias. As to conditions: add-on therapy with L-DOPA, patients; cited from earlier work.
Series [2] deals with rat NMDA-NR2B containing receptors (Rattus norvegicus, UniProt P35439+Q00960). Kind of series: pH potency boost, Xenopus oocyte assay, rat receptor cDNA. Format: cell-based. As to conditions: pH 6.9 vs 7.6, rat receptors. An excerpt:
(§1) In vitro transcribed cRNA was purified using standard methods.
(§2) Preparation of pH-dependent NMDA receptor antagonists for testing.
(§3) Voltage-clamp recordings from Xenopus oocytes.
(§4) Determination of a pH dependent potency boost in antagonism, defined as the […].

Series [3] concerns the target human NMDA-NR2B containing receptors (Homo sapiens, UniProt Q05586+Q13224). Kind of series: pH potency boost, Xenopus oocyte assay, human receptor cDNA. The format is cell-based. The following applies: for HUMAN Boost: pH potency boost, pH 6.9 vs 7.6, human receptors; for Absolute Boost Difference: rat versus human pH potency boost.
Description: as §1, §2, §3, §4

For series [4], the system named is infarct volume. As to conditions: cats, highest dose tested; cited from earlier work.
For series [5], the system named is infarct volume. As to conditions: rats, after middle cerebral artery occlusion; cited from earlier work.
Series [6] has as its system infarct volume. As to conditions: cats and rats, highest dose tested; cited from earlier work.
The target in series [7] is NR1/NR2A receptors (Rattus norvegicus, UniProt P35439+Q00959). In words: In vitro potency boost pH 6.9 vs 7.6 (NR1/NR2A, oocytes) versus infarct volume (FIG. 4). As to conditions: potency boost pH 6.9 vs 7.6 versus infarct volume.
Description: Expression of NMDA receptors in Xenopus oocytes. cRNA was synthesized from linearized template cDNA for NMDA receptor subunits (NR1-1a, NR2B, NR2A) according to manufacturer specifications (Ambion:). cDNAs used corresponded to GenBank numbers U08261 and U11418 (NR1-1a), AF001423 and CD13211 (NR2A), U11419 (NR2B). Briefly, cDNA was linearized with an appropriate restriction enzyme downstream of the coding region, purified, and incubated with RNA polymerase and appropriate concentrations of ribonucleotides. In vitro transcribed cRNA was purified using standard methods. Quality of synthesized cRNA was assessed by gel electrophoresis, and quantity was estimated by spectroscopy and gel electrophoresis. Stage V and VI oocytes were surgically removed from the ovaries of large, well-fed and healthy Xenopus laevis anesthetized with 3-amino-benzoic acid ethyl ester (1 gm/l). Clusters of oocytes were incubated with 292 Uml Worthington (Freehold, N.J.) type IV collagenase or 1.3 mg/ml collagenase (Life Technologies, Gaithersburg, Md.; 17018-029) for 2 hr in Ca2+-free solution comprised of (in mM) 115 NaCl, 2.5 KCl, and 10 HEPES, pH 7.5, with slow agitation to remove the follicular cell layer. […]
The nature of series [8]: Locomotor activity of rats (light beam breaks). The following applies: IP, varying doses (3-300 mg/kg, compound-specific), monitored 2 hours after injection. Format: in vivo, Sprague-Dawley rats. Here is the method: Locomotor activity was monitored after injection for 2 hours.

Where two headings read alike, the source gives them in different places.

Data on ten compounds can be found in US20100272648A1, “Methods of Identifying Improved NMDA Receptor Antagonists” (priority 2008, published 2010).

rat NMDA-NR2B containing receptors, sequence (Q00960 27-1482, other chains not shown): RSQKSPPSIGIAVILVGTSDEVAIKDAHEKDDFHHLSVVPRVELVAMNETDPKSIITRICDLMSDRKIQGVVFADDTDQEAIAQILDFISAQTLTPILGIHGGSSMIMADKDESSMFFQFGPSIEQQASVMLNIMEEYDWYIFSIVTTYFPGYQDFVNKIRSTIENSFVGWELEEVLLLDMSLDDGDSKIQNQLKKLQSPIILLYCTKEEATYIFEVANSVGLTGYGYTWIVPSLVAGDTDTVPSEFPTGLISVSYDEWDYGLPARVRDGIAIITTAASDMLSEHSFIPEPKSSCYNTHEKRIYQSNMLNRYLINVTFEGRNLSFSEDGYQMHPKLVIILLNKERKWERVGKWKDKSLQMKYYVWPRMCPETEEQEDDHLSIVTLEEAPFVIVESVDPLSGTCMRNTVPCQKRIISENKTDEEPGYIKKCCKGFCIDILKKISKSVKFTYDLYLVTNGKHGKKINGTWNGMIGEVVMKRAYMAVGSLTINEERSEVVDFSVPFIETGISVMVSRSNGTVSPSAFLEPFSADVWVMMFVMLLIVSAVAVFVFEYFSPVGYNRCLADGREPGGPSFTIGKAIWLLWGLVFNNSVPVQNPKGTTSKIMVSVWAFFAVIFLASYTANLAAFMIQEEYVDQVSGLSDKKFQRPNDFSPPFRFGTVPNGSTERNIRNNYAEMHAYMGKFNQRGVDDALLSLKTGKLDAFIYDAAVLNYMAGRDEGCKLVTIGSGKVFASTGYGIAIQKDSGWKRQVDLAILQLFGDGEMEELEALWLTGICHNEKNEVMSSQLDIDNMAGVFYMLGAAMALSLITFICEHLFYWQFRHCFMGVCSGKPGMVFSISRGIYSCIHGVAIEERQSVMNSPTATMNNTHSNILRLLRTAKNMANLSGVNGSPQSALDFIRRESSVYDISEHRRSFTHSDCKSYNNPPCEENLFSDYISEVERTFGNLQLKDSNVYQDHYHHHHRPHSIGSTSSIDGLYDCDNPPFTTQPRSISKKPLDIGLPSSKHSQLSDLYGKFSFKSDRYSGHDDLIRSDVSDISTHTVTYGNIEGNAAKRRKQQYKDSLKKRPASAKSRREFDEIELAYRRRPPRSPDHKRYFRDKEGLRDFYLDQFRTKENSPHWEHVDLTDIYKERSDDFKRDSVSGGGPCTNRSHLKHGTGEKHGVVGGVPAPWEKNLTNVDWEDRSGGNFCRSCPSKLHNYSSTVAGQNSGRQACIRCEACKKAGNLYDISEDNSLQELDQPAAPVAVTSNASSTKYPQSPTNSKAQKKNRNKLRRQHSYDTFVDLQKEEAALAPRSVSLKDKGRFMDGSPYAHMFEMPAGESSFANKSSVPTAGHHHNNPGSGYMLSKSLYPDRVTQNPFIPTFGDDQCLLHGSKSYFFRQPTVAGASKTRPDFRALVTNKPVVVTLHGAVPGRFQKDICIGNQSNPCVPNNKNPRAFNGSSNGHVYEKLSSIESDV
human NMDA-NR2B containing receptors, sequence (Q13224 27-1484, other chains not shown): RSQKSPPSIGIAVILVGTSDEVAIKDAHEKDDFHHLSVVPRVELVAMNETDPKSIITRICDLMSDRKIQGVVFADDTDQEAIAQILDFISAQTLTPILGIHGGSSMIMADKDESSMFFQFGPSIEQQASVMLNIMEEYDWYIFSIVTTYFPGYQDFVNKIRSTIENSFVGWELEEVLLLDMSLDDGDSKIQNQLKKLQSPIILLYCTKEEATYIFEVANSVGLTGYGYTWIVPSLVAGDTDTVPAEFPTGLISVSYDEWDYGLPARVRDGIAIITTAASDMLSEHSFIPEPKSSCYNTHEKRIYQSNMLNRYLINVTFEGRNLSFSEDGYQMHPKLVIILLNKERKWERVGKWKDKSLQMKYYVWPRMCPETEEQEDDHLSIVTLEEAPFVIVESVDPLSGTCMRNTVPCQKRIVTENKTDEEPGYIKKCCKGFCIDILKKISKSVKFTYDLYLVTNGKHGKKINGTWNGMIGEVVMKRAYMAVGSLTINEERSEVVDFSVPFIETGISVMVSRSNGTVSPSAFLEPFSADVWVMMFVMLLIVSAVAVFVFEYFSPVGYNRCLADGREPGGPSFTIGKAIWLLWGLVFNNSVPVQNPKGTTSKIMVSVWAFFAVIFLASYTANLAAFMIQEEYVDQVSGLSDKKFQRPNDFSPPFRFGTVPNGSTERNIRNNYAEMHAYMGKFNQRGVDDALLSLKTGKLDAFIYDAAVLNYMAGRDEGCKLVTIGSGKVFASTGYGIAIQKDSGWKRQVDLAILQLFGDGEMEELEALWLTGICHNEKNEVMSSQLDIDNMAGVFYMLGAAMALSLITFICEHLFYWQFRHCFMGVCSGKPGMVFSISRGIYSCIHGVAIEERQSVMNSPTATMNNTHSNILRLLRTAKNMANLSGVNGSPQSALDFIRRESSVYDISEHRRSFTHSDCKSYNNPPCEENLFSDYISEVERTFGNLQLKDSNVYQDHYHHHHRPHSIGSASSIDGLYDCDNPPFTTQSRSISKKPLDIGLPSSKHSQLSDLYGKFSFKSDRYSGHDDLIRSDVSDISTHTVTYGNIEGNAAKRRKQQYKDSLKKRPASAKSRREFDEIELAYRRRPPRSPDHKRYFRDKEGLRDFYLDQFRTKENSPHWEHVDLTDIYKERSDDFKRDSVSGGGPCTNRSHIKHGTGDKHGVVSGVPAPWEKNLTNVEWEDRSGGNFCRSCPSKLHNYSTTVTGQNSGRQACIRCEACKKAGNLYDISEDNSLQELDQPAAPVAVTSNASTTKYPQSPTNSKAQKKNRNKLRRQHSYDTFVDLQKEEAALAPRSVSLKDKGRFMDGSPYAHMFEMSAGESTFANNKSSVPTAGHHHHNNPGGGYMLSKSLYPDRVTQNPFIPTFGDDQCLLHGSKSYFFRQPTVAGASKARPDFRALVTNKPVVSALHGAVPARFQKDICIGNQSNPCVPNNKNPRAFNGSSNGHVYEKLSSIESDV
NR1/NR2A receptors, sequence (Q00959 23-1464, other chains not shown): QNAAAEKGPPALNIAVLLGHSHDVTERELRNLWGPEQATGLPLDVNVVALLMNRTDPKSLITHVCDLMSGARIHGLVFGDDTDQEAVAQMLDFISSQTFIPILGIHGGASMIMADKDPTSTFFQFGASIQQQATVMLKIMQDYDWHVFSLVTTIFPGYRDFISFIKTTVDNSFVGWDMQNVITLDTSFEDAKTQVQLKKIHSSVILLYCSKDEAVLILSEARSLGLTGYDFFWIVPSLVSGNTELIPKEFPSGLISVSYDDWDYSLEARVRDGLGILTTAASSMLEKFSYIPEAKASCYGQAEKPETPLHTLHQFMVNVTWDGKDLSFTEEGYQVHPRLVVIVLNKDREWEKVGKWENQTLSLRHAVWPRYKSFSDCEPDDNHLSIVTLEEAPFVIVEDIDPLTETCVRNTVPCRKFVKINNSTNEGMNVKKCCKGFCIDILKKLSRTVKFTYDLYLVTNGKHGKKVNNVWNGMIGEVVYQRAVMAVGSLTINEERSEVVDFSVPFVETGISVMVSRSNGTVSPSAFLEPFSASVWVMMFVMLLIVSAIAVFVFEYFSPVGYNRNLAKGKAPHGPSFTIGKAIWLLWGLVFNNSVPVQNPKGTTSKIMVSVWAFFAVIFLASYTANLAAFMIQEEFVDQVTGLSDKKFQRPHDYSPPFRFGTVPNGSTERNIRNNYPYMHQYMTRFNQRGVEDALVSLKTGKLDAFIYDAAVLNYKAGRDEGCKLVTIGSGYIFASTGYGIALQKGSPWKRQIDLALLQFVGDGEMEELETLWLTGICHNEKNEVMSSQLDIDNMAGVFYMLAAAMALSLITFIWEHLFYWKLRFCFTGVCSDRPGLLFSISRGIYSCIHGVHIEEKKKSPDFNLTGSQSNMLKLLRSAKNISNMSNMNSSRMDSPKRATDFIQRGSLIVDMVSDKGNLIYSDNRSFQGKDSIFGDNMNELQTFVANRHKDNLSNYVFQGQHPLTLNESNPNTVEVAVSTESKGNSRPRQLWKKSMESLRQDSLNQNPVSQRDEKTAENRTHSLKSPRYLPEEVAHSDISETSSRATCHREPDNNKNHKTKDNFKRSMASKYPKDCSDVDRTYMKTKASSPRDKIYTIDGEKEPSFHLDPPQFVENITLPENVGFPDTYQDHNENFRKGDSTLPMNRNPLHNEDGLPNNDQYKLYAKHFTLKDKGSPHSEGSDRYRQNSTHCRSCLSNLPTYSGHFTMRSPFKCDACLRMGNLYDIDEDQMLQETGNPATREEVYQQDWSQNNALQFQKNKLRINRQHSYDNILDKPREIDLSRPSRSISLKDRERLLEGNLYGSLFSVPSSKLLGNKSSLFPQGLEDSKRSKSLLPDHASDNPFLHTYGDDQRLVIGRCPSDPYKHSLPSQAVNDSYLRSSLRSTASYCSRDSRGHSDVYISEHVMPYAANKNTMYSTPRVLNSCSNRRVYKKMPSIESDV

For the compound `NC12CC3CC(CC(C3)C1)C2` [Amantadine], the “reduction of severity of dyskinesias” value in series [1] is given as 60%.

For `CS(=O)(=O)Nc1ccc(OCC(O)CN(CCc2ccc(Cl)c(Cl)c2)Cc2ccccc2)cc1` (stereo not drawn) [Compound 93-30], the “RAT Boost” value in series [2] worked out at 7.4. Further, in series [3], the “HUMAN Boost” value was determined as 21.0 and the “Absolute Boost Difference” value came out at 13.6.

Turning to `CCCCN(CCc1ccc(Cl)c(Cl)c1)CC(O)COc1ccc(NS(C)(=O)=O)cc1` (stereo not drawn) [Compound 93-88], the “RAT Boost” value in series [2] amounted to 6.3. Moreover, in series [3], the “HUMAN Boost” value amounted to 22.1 and the “Absolute Boost Difference” value was found to be 15.8.

Turning to `CS(=O)(=O)Nc1ccc(OCC(O)CN2CCN(c3ccc(F)c(F)c3)CC2)cc1` (stereo not drawn) [Compound 93-108], the “RAT Boost” value in series [2] was found to be 3.4. In series [3], the “HUMAN Boost” value is on record as 17.7 and the “Absolute Boost Difference” value was found to be 14.3.

Take `C/C=C/CN(CCc1ccc(Cl)c(Cl)c1)CC(O)COc1ccc(NS(C)(=O)=O)cc1` (stereo not drawn) [Compound 93-128]: the “RAT Boost” value in series [2] was 4.1. Further, in series [3], the “HUMAN Boost” value was 18.0 and the “Absolute Boost Difference” value is reported as 13.9.

For the compound `CS(=O)(=O)Nc1ccc(OCC2CN(CCc3cc(Cl)c(Cl)s3)C(c3c(F)c(F)c(F)c(F)c3F)O2)cc1` (stereo not drawn) [Compound 93-176], the “RAT Boost” value in series [2] worked out at 34.5. In addition, in series [3], the “HUMAN Boost” value was found to be 29.9 and the “Absolute Boost Difference” value came to 4.6.

As for `CC(C(O)c1ccc(O)cc1)N1CCC(Cc2ccccc2)CC1` (stereo not drawn) [Ifenprodil], the “decrease in infarct volume” value is reported as 42% in series [4] and 22% in series [5].

As for `OC(CN1CCC(Cc2ccc(F)cc2)CC1)c1ccc(Cl)cc1` (stereo not drawn) [SL 82.0715], the “decrease in infarct volume” value in series [6] is 36-48%.

As to `CNC1(c2ccccc2Cl)CCCCC1=O` (stereo not drawn) [ketamine], in series [7], the “mean within shaded area (criteria for superior drug performance), NR1/NR2A” value is “fall within the shaded area”.

As to (+)MK801, the “effects on locomotor activity” value in series [8] is given as “stereotypical biphasic effects”.
